The text below walks through data of US10323027B2, “2,3-dihydro-4H-1,3-benzoxazin-4-one derivatives as modulators of cholinergic muscarinic M1 receptor” (Takeda Pharmaceutical Company Limited, priority 2015, dated 2019).

Structures can show the parent of a compound that is named as a salt.

The experiment has as its target T1, human M1 receptor (hCHRM1) (Homo sapiens, UniProt P11229).
T1 construct: expressed in transfected cells
T1 sequence (P11229 1-460): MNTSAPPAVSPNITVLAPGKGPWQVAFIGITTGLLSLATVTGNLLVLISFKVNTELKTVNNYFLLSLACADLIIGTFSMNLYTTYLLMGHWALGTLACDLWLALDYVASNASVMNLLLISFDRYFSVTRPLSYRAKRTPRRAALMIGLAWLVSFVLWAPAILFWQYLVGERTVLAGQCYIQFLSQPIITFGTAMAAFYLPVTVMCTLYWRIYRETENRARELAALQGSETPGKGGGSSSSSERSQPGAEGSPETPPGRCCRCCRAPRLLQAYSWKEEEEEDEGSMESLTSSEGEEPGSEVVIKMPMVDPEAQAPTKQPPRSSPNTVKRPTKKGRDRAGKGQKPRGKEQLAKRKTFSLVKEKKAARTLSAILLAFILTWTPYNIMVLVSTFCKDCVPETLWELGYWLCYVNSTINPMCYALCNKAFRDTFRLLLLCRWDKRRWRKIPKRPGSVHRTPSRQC
The experiment is described as follows: Measurement of M1 receptor positive allosteric modulator (M1PAM) activity, Ca2+ fluorescence by FDSS/μ cell (Experimental Example 2). The experiment is classed as cell-based. The following applies: for activity (%) at 10 μM: 10 μM test compound, 100% = acetylcholine 1 μM, 0% = DMSO; for EC50: inflection point of concentration-dependent curve, in presence of acetylcholine at EC20 (0.8-1.0 nM), CHO-K1 cells expressing hCHRM1, read-out: IP value. The method, then:
Measurement of M1 Receptor Positive Allosteric Modulator (M1PAM) Activity
The activity of a test compound in the presence of acetylcholine at EC20 concentration (final concentration 0.8-1.0 nM), which affords an action corresponding to about 20% of the maximum activity, was measured as PAM activity. The method is as follows. CHO-K1 cells stably expressing a human M1 receptor (hCHRM1) were plated on a 384-well black clear bottom plate (BD Falcon) at 5,000 cells/well, and cultured in an incubator at 37° C., 5% CO2 for 1 day. The medium in the cell plate was removed, and a dye solution (prepared by adding Recording medium (DOJINDO LABORATORIES) to a final concentration of 1×concentration, Fluo-4 AM (DOJINDO LABORATORIES) to a final concentration of 2.5 μg/mL, Pluronic F127 (DOJINDO LABORATORIES) to a final concentration of 0.08%, and probenecid (DOJINDO LABORATORIES) to a final concentration of 1.25 mM to assay buffer (HBSS (Invitrogen), 20 mM HEPES (Invitrogen), 0.1% BSA (Wako Pure Chemical Industries, Ltd.))) was added at 30 μL/well. The cells were left standing in the incubator at 37° C., 5% CO2 for 30 min, and further left standing at room temperature for 30 min. A test compound prepared by diluting with assay buffer containing 3.2-4.0 nM acetylcholine was added at 10 μL/well, and the fluorescence was measured by FDSS/μ cell (Hamamatsu Photonics K.K.) for 1 min every 1 second. With the definition that the amount of change in the fluorescence on addition of acetylcholine (final concentration 1 μM) is 100% and that on addition of DMSO instead of a test compound is 0%, the activity (%) of the test compound was calculated, and the inflection point in the concentration-dependent curve of the test compound was calculated as IP values.

For `Cc1c(Cc2ccc(C#C[Si](C)(C)C)nc2)cc2c(c1C)OCN([C@H]1COCC[C@@H]1O)C2=O` [Example 111, 1,5-anhydro-2,4-dideoxy-2-(7,8-dimethyl-4-oxo-6-((6-((trimethylsilyl)ethynyl)pyridin-3-yl)methyl)-2H-1,3-benzoxazin-3(4H)-yl)-L-threo-pentitol], the “activity (%) at 10 μM” value came out at 96% and the EC50 turned out to be 68 nM.
On the same counts, the results for `CCc1cc2c(cc1Cc1ccc(-n3cccn3)cc1)C(=O)N([C@H]1COCC[C@@H]1O)CO2` [Example 107, 1,5-anhydro-2,4-dideoxy-2-(7-ethyl-4-oxo-6-(4-(1H-pyrazol-1-yl)benzyl)-2H-1,3-benzoxazin-3(4H)-yl)-L-threo-pentitol] are 99% and 5.5 nM.
For `Cc1c(Cc2ccc(-n3nccn3)cc2)cc2c(c1C)OCN([C@H]1COCC[C@@H]1O)C2=O` [Example 142, 1,5-anhydro-2,4-dideoxy-2-(7,8-dimethyl-4-oxo-6-(4-(2H-1,2,3-triazol-2-yl)benzyl)-2H-1,3-benzoxazin-3(4H)-yl)-L-threo-pentitol], the “activity (%) at 10 μM” value amounted to 99% and the EC50 was 38 nM.
On to `Cc1cc2c(cc1Cc1ccc(-n3cccn3)nc1)C(=O)N([C@H]1CCCC[C@@H]1O)CO2` (single isomer, unassigned) [Example 95], for which the “activity (%) at 10 μM” value was 102% and the EC50 was 13 nM.
In the same order, the values of `Cc1cc(-c2ccc(Cc3cc4c(c(F)c3C)OCN([C@H]3CCC[C@@H]3O)C4=O)cc2)cnn1` [Example 105, 8-fluoro-3-((1S,2S)-2-hydroxycyclopentyl)-7-methyl-6-(4-(6-methylpyridazin-4-yl)benzyl)-2,3-dihydro-4H-1,3-benzoxazin-4-one hydrochloride] are 98% and 5.6 nM.
In the same order, the values of `Cc1cc(-c2ccc(Cc3cc4c(c(F)c3C)OCN([C@H]3CCC[C@@H]3O)C4=O)cn2)ccn1` [Example 90, 8-fluoro-3-((1S,2S)-2-hydroxycyclopentyl)-7-methyl-6-((2′-methyl-2,4′-bipyridin-5-yl)methyl)-2,3-dihydro-4H-1,3-benzoxazin-4-one] are 102% and 4 nM.
Turning to `Cc1c(Cc2ccc(-c3ccn(C)n3)nc2)cc2c(c1F)OCN([C@H]1CCCC[C@@H]1O)C2=O` [Example 92, 8-fluoro-3-((1S,2S)-2-hydroxycyclohexyl)-7-methyl-6-((6-(1-methyl-1H-pyrazol-3-yl)pyridin-3-yl)methyl)-2,3-dihydro-4H-1,3-benzoxazin-4-one], the “activity (%) at 10 μM” value stood at 101% and the EC50 stood at 3.4 nM.
As for `Cc1cc2c(cc1Cc1ccc(-n3cccn3)nc1)C(=O)N([C@H]1COCC[C@@H]1O)CO2` [Example 103, 1,5-anhydro-2,4-dideoxy-2-(7-methyl-4-oxo-6-((6-(1H-pyrazol-1-yl)pyridin-3-yl)methyl)-2H-1,3-benzoxazin-3(4H)-yl)-L-threo-pentitol], the “activity (%) at 10 μM” value is listed as 103% and the EC50 was found to be 15 nM.
In the same order, the values of `Cc1c(Cc2ccc(-n3cccn3)nc2)cc2c(c1Cl)OCN([C@H]1COCC[C@@H]1O)C2=O` [Example 106, 1,5-anhydro-2-(8-chloro-7-methyl-4-oxo-6-((6-(1H-pyrazol-1-yl)pyridin-3-yl)methyl)-2H-1,3-benzoxazin-3(4H)-yl)-2,4-dideoxy-L-threo-pentitol] are 113% and 6.9 nM.
With `Cc1c(Cc2ccc(-c3ccn(C)n3)cc2)cc2c(c1F)OCN([C@H]1COCC[C@@H]1O)C2=O` [Example 108, 1,5-anhydro-2,4-dideoxy-2-(8-fluoro-7-methyl-6-(4-(1-methyl-1H-pyrazol-3-yl)benzyl)-4-oxo-2H-1,3-benzoxazin-3(4H)-yl)-L-threo-pentitol], the “activity (%) at 10 μM” value was determined as 99% and the EC50 is 5.3 nM.
In the same order, the values of `Cc1cc2c(cc1Cc1ccc(Cl)nc1)C(=O)N([C@H]1CCCC[C@@H]1O)CO2` [Example 140, 6-((6-chloropyridin-3-yl)methyl)-3-((1S,2S)-2-hydroxycyclohexyl)-7-methyl-2,3-dihydro-4H-1,3-benzoxazin-4-one] are 101% and 10 nM.
On the same counts, the results for `Cc1c(Cc2ccc(-c3ccn(C)n3)cc2)cc2c(c1C)OCN([C@H]1COCC[C@@H]1O)C2=O` [Example 100, 1,5-anhydro-2,4-dideoxy-2-(7,8-dimethyl-6-(4-(1-methyl-1H-pyrazol-3-yl)benzyl)-4-oxo-2H-1,3-benzoxazin-3(4H)-yl)-L-threo-pentitol] are 99% and 4.4 nM.
In the same order, the values of `COc1ccc(Cc2cc3c(c(Cl)c2C)OCN([C@H]2COCC[C@@H]2O)C3=O)cn1` [Example 109, 1,5-anhydro-2-(8-chloro-6-((6-methoxypyridin-3-yl)methyl)-7-methyl-4-oxo-2H-1,3-benzoxazin-3(4H)-yl)-2,4-dideoxy-L-threo-pentitol] are 97% and 5.7 nM.
For the molecule `Cc1c(Cc2ccc(-n3cccn3)nc2)cc2c(c1C)OCN([C@H]1COCC[C@@H]1O)C2=O` [Example 98, 1,5-anhydro-2,4-dideoxy-2-(7,8-dimethyl-4-oxo-6-((6-(1H-pyrazol-1-yl)pyridin-3-yl)methyl)-2H-1,3-benzoxazin-3(4H)-yl)-L-threo-pentitol], the “activity (%) at 10 μM” value was determined as 103% and the EC50 came out at 4.9 nM.
Take `CCn1ccc(-c2ccc(Cc3cc4c(c(F)c3C)OCN([C@H]3CCC[C@@H]3O)C4=O)cn2)n1` [Example 91, 6-((6-(1-ethyl-1H-pyrazol-3-yl)pyridin-3-yl)methyl)-8-fluoro-3-((1S,2S)-2-hydroxycyclopentyl)-7-methyl-2,3-dihydro-4H-1,3-benzoxazin-4-one]: the “activity (%) at 10 μM” value amounted to 105% and the EC50 was determined as 4 nM.
On the same counts, the results for `C#Cc1ccc(Cc2cc3c(c(C)c2C)OCN([C@H]2COCC[C@@H]2O)C3=O)cn1` [Example 112, 1,5-anhydro-2,4-dideoxy-2-(6-((6-ethynylpyridine-3-yl)methyl)-7,8-dimethyl-4-oxo-2H-1,3-benzoxazin-3(4H)-yl)-L-threo-pentitol] are 99% and 9.1 nM.
As for `CCc1cc2c(cc1Cc1ccc(OC)nc1)C(=O)N([C@H]1COCC[C@@H]1O)CO2` [Example 118, 1,5-anhydro-2,4-dideoxy-2-(7-ethyl-6-((6-methoxypyridin-3-yl)methyl)-4-oxo-2H-1,3-benzoxazin-3(4H)-yl)-L-threo-pentitol], the “activity (%) at 10 μM” value came out at 116% and the EC50 is 47 nM.
With `Cc1c(Cc2ccc(-n3cccn3)cc2)cc2c(c1F)OCN(CC(C)(C)O)C2=O` [Example 101, 8-fluoro-3-(2-hydroxy-2-methylpropyl)-7-methyl-6-(4-(1H-pyrazol-1-yl)benzyl)-2,3-dihydro-4H-1,3-benzoxazin-4-one], the “activity (%) at 10 μM” value was 91% and the EC50 came out at 61 nM.
Consider `Cc1c(Cc2ccc(-n3cccn3)nc2)cc2c(c1F)OCN([C@H]1COCC[C@@H]1O)C2=O` [Example 102, 1,5-anhydro-2,4-dideoxy-2-(8-fluoro-7-methyl-4-oxo-6-((6-(1H-pyrazol-1-yl)pyridin-3-yl)methyl)-2H-1,3-benzoxazin-3(4H)-yl)-L-threo-pentitol], for which the “activity (%) at 10 μM” value is recorded as 98% and the EC50 was 8.7 nM.
For `Cc1c(Cc2ccc3nn(C)cc3c2)cc2c(c1C)OCN([C@H]1COCC[C@@H]1O)C2=O` [Example 116, 1,5-anhydro-2,4-dideoxy-2-(7,8-dimethyl-6-((2-methyl-2H-indazol-5-yl)methyl)-4-oxo-2H-1,3-benzoxazin-3(4H)-yl)-L-threo-pentitol], the “activity (%) at 10 μM” value was 96% and the EC50 was 7 nM.
